Experimental data from PubChem BioAssay (NCI).
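A five-concentration, 48-hour dose response in 96-well plates underlies each endpoint, interpolated linearly between surrounding concentrations. TGI denotes the concentration required for complete inhibition of growth.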

What was measured:
Test in all cases: NCI anticancer screen, dose series, 48 h
[1] = tested on: SW-620 colon
[2] = tested on: SK-MEL-2 melanoma
[3] = tested on: SNB-19 CNS
[4] = tested on: U251 CNS
[5] = tested on: SF-268 CNS
[6] = tested on: RPMI-8226 leukemia
[7] = tested on: HOP-62 NSCLC
[8] = tested on: CAKI-1 renal
[9] = tested on: HOP-92 NSCLC
[10] = tested on: COLO 205 colon
[11] = tested on: A498 renal
[12] = tested on: HCC-2998 colon
[13] = tested on: UACC-62 melanoma
[14] = tested on: K-562 leukemia
[15] = tested on: HCT-116 colon
[16] = tested on: SNB-75 CNS
[17] = tested on: NCI-H460 lung
[18] = tested on: SN12C renal
[19] = tested on: SF-295 CNS
[20] = tested on: SF-539 CNS

Row | SMILES | TGI [1] | TGI [2] | TGI [3] | TGI [4] | TGI [5] | TGI [6] | TGI [7] | TGI [8] | TGI [9] | TGI [10] | TGI [11] | TGI [12] | TGI [13] | TGI [14] | TGI [15] | TGI [16] | TGI [17] | TGI [18] | TGI [19] | TGI [20]
1 | OCCOCCN1CCN(CCCN2c3ccccc3Sc3ccc(C(F)(F)F)cc32)CC1 | 29.6 µM | 34.7 µM | 27.8 µM | 24.7 µM | 33.1 µM | 17.8 µM | 33.2 µM | 30.5 µM | 27.8 µM | 3.57 µM | 22.6 µM | 13 µM | 19.5 µM | 10.3 µM | 20.3 µM | 13.6 µM | 22.7 µM | 26.7 µM | 25.8 µM | 25.9 µM
2 | O=C1Nc2ccccc2C1=Nc1cccc2ncccc12 | > 100 µM | > 100 µM | > 100 µM | > 100 µM | > 100 µM | > 100 µM | > 100 µM | > 100 µM | > 100 µM | > 100 µM | > 100 µM | – | > 100 µM | > 100 µM | > 100 µM | > 100 µM | > 100 µM | > 100 µM | > 100 µM | > 100 µM
3 | O=C1NC2=C(CCCC/C2=N\O)C12CCCCC2 | > 100 µM | – | > 100 µM | > 100 µM | > 100 µM | – | > 100 µM | – | – | – | > 100 µM | > 100 µM | > 100 µM | > 100 µM | > 100 µM | > 100 µM | > 100 µM | > 100 µM | > 100 µM | > 100 µM
4 | NCCCOc1ccc([N+](=O)[O-])cc1Cl | > 100 µM | > 100 µM | > 100 µM | > 100 µM | > 100 µM | > 100 µM | > 100 µM | > 100 µM | > 100 µM | > 100 µM | – | > 100 µM | > 100 µM | > 100 µM | > 100 µM | > 100 µM | > 100 µM | – | > 100 µM | > 100 µM
5 | c1coc(CNc2ncnc3[nH]ncc23)c1 | > 100 µM | > 100 µM | > 100 µM | > 100 µM | > 100 µM | > 100 µM | > 100 µM | > 100 µM | > 100 µM | > 100 µM | > 100 µM | > 100 µM | > 100 µM | > 100 µM | > 100 µM | > 100 µM | > 100 µM | > 100 µM | > 100 µM | > 100 µM
6 | CC(=O)c1ccc2c(c1)c1c(C)c3c[n+](C)ccc3c(C)c1n2C | > 85.4 µM | 22.6 µM | 5.74 µM | 11.9 µM | 3.52 µM | 30.5 µM | 38.2 µM | > 76 µM | 69.2 µM | > 100 µM | 46.5 µM | > 100 µM | 8.23 µM | > 72.2 µM | 18.8 µM | 57.1 µM | 15.1 µM | 4.9 µM | 10.3 µM | 13.9 µM
7 | CCN(CC)CCNc1ccc2nnn3c4ccc(C)cc4c(=O)c1c23 | 17.2 µM | 27.1 µM | 27.4 µM | 24.7 µM | 22.3 µM | 21.6 µM | 28.9 µM | 34.9 µM | 20.7 µM | 20.6 µM | 29.3 µM | – | 27.1 µM | 25.9 µM | 15 µM | 23.2 µM | 13.9 µM | 22.3 µM | 18 µM | 18.7 µM
8 | Brc1ccc(C2CC(c3cccc4ccccc34)=Nc3ccccc3S2)cc1 (stereo unspecified) | 34 µM | > 100 µM | > 100 µM | > 100 µM | > 100 µM | 51.6 µM | > 100 µM | > 100 µM | > 100 µM | > 100 µM | > 100 µM | > 100 µM | > 100 µM | > 100 µM | > 100 µM | > 100 µM | > 100 µM | > 100 µM | > 100 µM | > 100 µM
